Laboratory results reported in patent US7728043B2, “Methods for treatment of beta-amyloid protein-induced ocular disease” (priority 1999, dated 2010).
“Also recorded” adds a separate entry of the source.

Columns and labels:
HUVEC cells = experiment: MTT reduction assay, βA peptide-induced toxicity, HUVEC cells; format: cell-based, human; settings: Table 1, turmeric-derived natural product compounds
Description: (§1) The degree of βA insult was measured by 3-[4,5-dimethylthiazol-2-yl]-2,5-diphenyltetrazolium bromide (MTT) reduction assay. […] The detection of cell growth or cell death can be determined by observing the conversion of MTT to the colored product, MTT formazan, the concentration of which can be measured […] at 550 nm.
(§2) Cells were incubated in MTT solution (5 mg/ml) at 37° C. for 2 hours. During this time, cells were observed under a microscope every 15 min. Cells were incubated in Lysing buffer (100 μl) overnight at 37° C. Colorimetric determination of MTT reduction was made at 550 nm.
(§3) PC12 rat pheochromocytoma and IMR32 human neuroblastoma cells were obtained from the American Type Culture Collection (ATCC). HUVEC normal umbilical human vein endothelial cells were obtained from Clonetics (San Diego, Calif.). Cells were routinely cultured on a tissue culture plate (Corning, N.Y., N.Y.). PC12 cells were grown in high glucose Dulbecco's Modified Eagle Medium (DMEM), 10% horse serum, 5% fetal calf serum, and 1% penicillin/streptomycin. IMR32 cells were grown in 90% DMEM and 10% fetal calf serum with 1% penicillin/streptomycin. HUVEC cells were grown in EGM-2 Bullet Kit (Clonetics, San Diego, Calif.).

[1] = test system: primary cortical rat neuronal cells; experiment: Protection of primary cortical neuronal cells against βA peptide (1-42) insult; format: cell-based; settings: compound at 5 μg/ml; βA peptide (1-42) 10 μg/ml
Description: as §2
Primary cortical rat neuronal cells were obtained in the following manner. Dissociated primary neuronal cell cultures were established from 18-day-old Sprague-Dawley rat fetuses. The pups were delivered by caesarean section while the dam was anesthetized with ether. Hippocampal tissue from embryonic day 18 Sprague-Dawley rat pups was dissected and then rinsed in cold Ca^2+/Mg^2+-free Hank's balanced salt solution supplemented with 20 mM HEPES, 4.2 mM sodium bicarbonate, 1 mM pyruvate, and 3 mg/ml bovine serum albumin (BSA). Following gentle trituration of the tissue with a constricted pipette in cold buffer, two volumes of 10% fetal bovine serum (FBS) in DMEM were added to the suspension. After the suspension settled for 2 minutes, the supernatant was collected and centrifuged for 2 min. at 200×g. The cell pellets were resuspended in serum-free DMEM (pH 7.3), supplemented with 2.4 mg/ml BSA and a modification of Brewer's […] defined components (with 250 nM vitamin B12 and without catalase, glutathione, and superoxide dismutase). Cells were plated at a density of 15,000 cells/cm^2 and grown at 37° C. After 24 hours of incubation to allow cell attachment, the serum-containing medium was replaced by defined medium with DMEM/F12 containing bovine transferrin (100 μg/ml), bovine insulin (5 μg/ml), putrescine (0.1 mM), progesterone (10 nM), sodium selenite (30 nM), sodium pyruvate (1 mM), and potassium bicarbonate (15 mM). Cells maintained for extended periods of time were fed twice a week by replacing ⅓ of the medium with fresh medium.

IMR32 cells = experiment: MTT reduction assay, βA peptide-induced toxicity, IMR32 cells; format: cell-based, human
Description: as §1, §2, §3

[2] = test system: cells treated with βA peptide; experiment: Protection of cells from βA peptide insult, statements in words (MTT assay, cells not singled out); format: cell-based; settings: for Protection of cells from βA peptide-induced toxicity, in words: MTT reduction assay, PC12, IMR32, HUVEC cells where named in the sentence; for Microscopic analysis of βA peptide treated cells (MTT formazan granules in the cytosole): synthesized curcuminoid compounds, compared with positive and negative control
Description: as §1, §2

PC12 cells = experiment: MTT reduction assay, βA peptide-induced toxicity, PC12 cells; format: cell-based, rat
Description: as §1, §2, §3
PC12 cells were cultured routinely on polystyrene-coated Corning tissue culture plates. […] The 96-well plates were coated with rat tail collagen (Boehringer Mannheim) in order to promote uniform PC12 cell attachment and growth.

[3] = Antioxidant assay, scavenging of DPPH free radicals; settings: for Antioxidant activity (DPPH free radical scavenging), in words: optical density change of DPPH radicals at 515 nm
Description: Kim et al., Neurosci Lett 303, 57 (2001) and Barik et al., Free Radic Biol Med 39, 811 (2005).
Using an antioxidant assay, the antioxidant potency of the compounds of the invention was evaluated. 1,1-Diphenyl-2-picrylhydrazyl (DPPH) is known to generate stable free radicals in aqueous and ethanolic solutions. The ability of the compounds of the invention to scavenge these free radicals was measured by observing the optical density change of DPPH radicals at 515 nm. Kim et al., Neurosci Lett 303, 57 (2001) and Barik et al., Free Radic Biol Med 39, 811 (2005).
The samples were prepared in various concentrations (200, 20, 2.0, and 0.2 μg/ml) by serial dilution of a stock solution (5 mg/ml) and were tested by the following procedure. Reaction mixtures containing test compounds (dissolved in DMSO) and 300 μM DPPH ethanolic solution in 96-well microtiter plates were incubated at 37° C. for 30 min. and absorbance was measured at 515 nm. Percent inhibition by sample treatment was determined by comparison with a DMSO-treated […] control group. IC50 values were determined from percent inhibition by sample. IC50 values denote the concentration of the tested compound that was required to scavenge 50% of the DPPH free radicals.

[4] = Partition coefficient between water and octane alcohol (log P); format: physicochemical
Description: According to this example, the ability of the compounds of the invention to pass through the blood brain barrier was measured. The ability of compounds to cross the blood brain barrier is represented by the log of the partition coefficient (P) of a molecule of the invention between water and octane alcohol. […] Accordingly, the octane alcohol fraction contained more than 1000 times as much of the compounds as the water fraction. […] See Hau et al., Regul Toxicol Pharmacol 35, 273 (2002) and Salminen et al., J Pharm Biomed Anal 15, 469 (1997).

[5] = Table 1, turmeric-derived natural product compounds
[6] = Table 1, turmeric-derived natural product compounds, concentration for 50% cell viability
[7] = Table 1, turmeric-derived natural product compounds, scavenging 50% of DPPH free radicals
[8] = Table 2, synthesized curcuminoids
[9] = Table 2, synthesized curcuminoids, DPPH

Row | Compound | Anti-βA peptide(1-42) ED50 HUVEC (HUVEC cells) | Anti-βA peptide(25-35) ED50 HUVEC (HUVEC cells) | Protection of primary cortical neuronal cells against βA peptide (1-42) insult [1] | Anti-βA peptide(25-35) ED50 IMR32 (IMR32 cells; [5]) | Protection of cells from βA peptide-induced toxicity, in words [2] | Anti-βA peptide(1-42) ED50 PC12 (PC12 cells; [5]) | Anti-βA peptide(25-35) ED50 PC12 (PC12 cells; [6]) | Antioxidant IC50 [3, 7] | Antioxidant activity (DPPH free radical scavenging), in words [3] | Anti-βA peptide(1-42) ED50 IMR32 (IMR32 cells; [8]) | Anti-βA peptide(25-35) ED50 IMR32 (IMR32 cells; [8]) | Microscopic analysis of βA peptide treated cells (MTT formazan granules in the cytosole) [2] | Anti-βA peptide(1-42) ED50 PC12 (PC12 cells; [8]) | Anti-βA peptide(25-35) ED50 PC12 (PC12 cells; [8]) | logP [4] | Antioxidant IC50 [3, 9]
1 | COc1cc(C=CC(=O)CC(=O)C=Cc2ccc(O)cc2)ccc1O [Compound 2, 1-(4-hydroxy-3-methoxyphenyl)-7-(4-hydroxyphenyl)-1,6-heptadiene-3,5-dione] | 5.0 µg/mL | 4.5 µg/mL | protected | 4.0 µg/mL | protected | 5.0 µg/mL | 4.0 µg/mL | 36.2 µg/mL | strong antioxidant activity |  |  |  |  |  |  | 
2 | O=C(C=Cc1ccc(O)cc1)CC(=O)C=Cc1ccc(O)cc1 [Compound 3, 1,7-bis(4-hydroxyphenyl)-1,6-heptadiene-3,5-dione] | 2.0 µg/mL | 2.4 µg/mL | protected | 2.5 µg/mL | protected | 3.5 µg/mL | 2.0 µg/mL | >200 µg/mL | significant antioxidant activity | 3.5 µg/mL | 3.0 µg/mL | effectively protect | 4.5 µg/mL | 3.0 µg/mL | 3.1 | 32.6 µg/mL
3 | O=C(C=Cc1ccc(O)cc1)CC(=O)CCc1ccc(O)cc1 [Compound 4, 1,7-bis(4-hydroxyphenyl)-1-heptene-3,5-dione] | 1.0 µg/mL | 0.8 µg/mL | protected | 1.2 µg/mL | protected; also recorded: best protection | 1.0 µg/mL | 0.5 µg/mL | >200 µg/mL |  | 2.0 µg/mL | 1.5 µg/mL | effectively protect | 1.0 µg/mL | 0.5 µg/mL |  | >200 µg/mL
4 | O=C(C=C(O)C=Cc1ccc(O)c(O)c1)CCc1ccc(O)cc1 [Compound 5] | 1.5 µg/mL | 2.0 µg/mL | protected | 1.5 µg/mL | protected | 3.0 µg/mL | 2.5 µg/mL | >200 µg/mL |  |  |  |  |  |  |  | 
5 | COc1cc(/C=C/C(=O)COC(=O)/C=C/c2ccc(O)c(OC)c2)ccc1O [Compound 6, 4″-(3′″-methoxy-4′″-hydroxyphenyl)-2″-oxo-3″-enebutanyl 3-(3′-methoxy-4′-hydroxyphenyl)propenoate] | 1.0 µg/mL | 1.5 µg/mL | protected | 1.0 µg/mL | protected | 2.0 µg/mL | 1.0 µg/mL | >200 µg/mL |  |  |  |  |  |  |  | 
